Like-named read-outs stand apart in the source and are kept apart here.
Experiments:
[1] = test system: Key Grass and Sedge Weeds as well as Grass Crops; assay: Post-emergent Test II herbicidal activity (Table 6); format: in vivo; conditions: post-emergence, 336 h; for pest or weed control at 70 g/ha: application rate 70 g ai/ha; for pest or weed control at 140 g/ha: application rate 140 g ai/ha
Procedure, shortened: (§1)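 Spray rates: a highest rate plus ½×, ¼×, ⅛×, 1/16×, all delivered at 187 L/ha to plants at the first–second true leaf stage. Readout is a visual percent injury score at 14 d, where 100 means complete kill.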

[2] = test system: Key Broadleaf Weed and Crop Species; assay: Post-emergent Test II herbicidal activity (Table 5); format: in vivo; conditions: post-emergence, 336 h, post-emergent, 14 days after application; for pest or weed control at 70 g/ha: 70 g ai/ha; for pest or weed control at 140 g/ha: 140 g ai/ha
Procedure, shortened: as §1

[3] = CYPES: yellow nutsedge (Cyperus esculentus), read-out: Visual Growth Reduction (%) 14 Days After Application, CYPES
[4] = DIGSA: crabgrass (Digitaria sanguinalis), read-out: Visual Growth Reduction (%) 14 Days After Application, DIGSA
[5] = ECHCG: barnyardgrass (Echinochloa crus-galli), read-out: Visual Growth Reduction (%) 14 Days After Application, ECHCG
[6] = ORYSA: rice (Oryza sativa), read-out: Visual Growth Reduction (%) 14 Days After Application, ORYSA
[7] = SETFA: giant foxtail (Setaria faberi), read-out: Visual Growth Reduction (%) 14 Days After Application, SETFA
[8] = SORVU: grain sorghum (Sorghum vulgare), read-out: Visual Growth Reduction (%) 14 Days After Application, SORVU
[9] = TRZSS (wheat, Triticum aestivum), read-out: Visual Growth Reduction (%) 14 Days After Application, TRZSS
[10] = ZEAMX: maize, corn (Zea mays), read-out: Visual Growth Reduction (%) 14 Days After Application, ZEAMX
[11] = ABUTH: velvetleaf (Abutilon theophrasti), read-out: Visual Growth Reduction (%) 14 Days After Application ABUTH
[12] = AMARE: redroot pigweed (Amaranthus retroflexus), read-out: Visual Growth Reduction (%) 14 Days After Application AMARE
[13] = BRSNN: oilseed-rape, canola (Brassica napus), read-out: Visual Growth Reduction (%) 14 Days After Application BRSNN
[14] = CHEAL: lambsquarters (Chenopodium album), read-out: Visual Growth Reduction (%) 14 Days After Application CHEAL
[15] = EPHHL: wild poinsettia (Euphorbia heterophylla), read-out: Visual Growth Reduction (%) 14 Days After Application EPHHL
[16] = HELAN: sunflower (Helianthus annuus), read-out: Visual Growth Reduction (%) 14 Days After Application HELAN
[17] = VIOTR: wild pansy (Viola tricolor), read-out: Visual Growth Reduction (%) 14 Days After Application VIOTR

melting point: 107.5 to 110.3 °C
SMILES: COC(=O)c1nc(-c2cc(F)c(OC(F)F)cc2F)cc(N)c1Cl [Compound 177]
pest or weed control at 70 g/ha [1, 3]: 45 to 59%
pest or weed control at 140 g/ha [1, 3]: 45 to 59%
pest or weed control at 70 g/ha [1, 4]: 0 to 29%
pest or weed control at 140 g/ha [1, 4]: 0 to 29%
pest or weed control at 70 g/ha [1, 5]: 0 to 29%
pest or weed control at 140 g/ha [1, 5]: 60 to 74%
pest or weed control at 70 g/ha [1, 6]: 0 to 29%
pest or weed control at 140 g/ha [1, 6]: 0 to 29%
pest or weed control at 70 g/ha [1, 7]: 30 to 44%
pest or weed control at 140 g/ha [1, 7]: 45 to 59%
pest or weed control at 70 g/ha [1, 8]: 0 to 29%
pest or weed control at 140 g/ha [1, 8]: 45 to 59%
pest or weed control at 70 g/ha [1, 9]: 30 to 44%
pest or weed control at 140 g/ha [1, 9]: 30 to 44%
pest or weed control at 70 g/ha [1, 10]: 0 to 29%
pest or weed control at 140 g/ha [1, 10]: 0 to 29%
pest or weed control at 70 g/ha [2, 11]: 85 to 94%
pest or weed control at 140 g/ha [2, 11]: 85 to 94%
pest or weed control at 70 g/ha [2, 12]: 75 to 84%
pest or weed control at 140 g/ha [2, 12]: 85 to 94%
pest or weed control at 70 g/ha [2, 13]: 30 to 44%
pest or weed control at 140 g/ha [2, 13]: 75 to 84%
pest or weed control at 70 g/ha [2, 14]: 75 to 84%
pest or weed control at 140 g/ha [2, 14]: 85 to 94%
pest or weed control at 70 g/ha [2, 15]: 95 to 100%
pest or weed control at 140 g/ha [2, 15]: 95 to 100%
pest or weed control at 70 g/ha [2, 16]: 30 to 44%
pest or weed control at 140 g/ha [2, 16]: 0 to 29%
pest or weed control at 70 g/ha [2, 17]: 0 to 29%
pest or weed control at 140 g/ha [2, 17]: 0 to 29%

Source: patent publication US9113629B2, “4-amino-6-(4-substituted-phenyl)-picolinates and 6-amino-2-(4-substituted-phenyl)-pyrimidine-4-carboxylates and their use as herbicides” (DOW AGROSCIENCES LLC, priority 2013, dated 2015)
